Experimental findings from ChEMBL document CHEMBL1909046, “DrugMatrix in vitro pharmacology data” are described below.

pIC50: −log10 of the molar value.

Test [1] has as its target T1, Receptor-type tyrosine-protein phosphatase C (Homo sapiens, UniProt P08575).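 Also: inhibition of CD45 enzyme activity measured using DiFMUP as substrate; in other assays of this panel Not Active means under 50% inhibition at 10 µM.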
T1 sequence (P08575 whole entry): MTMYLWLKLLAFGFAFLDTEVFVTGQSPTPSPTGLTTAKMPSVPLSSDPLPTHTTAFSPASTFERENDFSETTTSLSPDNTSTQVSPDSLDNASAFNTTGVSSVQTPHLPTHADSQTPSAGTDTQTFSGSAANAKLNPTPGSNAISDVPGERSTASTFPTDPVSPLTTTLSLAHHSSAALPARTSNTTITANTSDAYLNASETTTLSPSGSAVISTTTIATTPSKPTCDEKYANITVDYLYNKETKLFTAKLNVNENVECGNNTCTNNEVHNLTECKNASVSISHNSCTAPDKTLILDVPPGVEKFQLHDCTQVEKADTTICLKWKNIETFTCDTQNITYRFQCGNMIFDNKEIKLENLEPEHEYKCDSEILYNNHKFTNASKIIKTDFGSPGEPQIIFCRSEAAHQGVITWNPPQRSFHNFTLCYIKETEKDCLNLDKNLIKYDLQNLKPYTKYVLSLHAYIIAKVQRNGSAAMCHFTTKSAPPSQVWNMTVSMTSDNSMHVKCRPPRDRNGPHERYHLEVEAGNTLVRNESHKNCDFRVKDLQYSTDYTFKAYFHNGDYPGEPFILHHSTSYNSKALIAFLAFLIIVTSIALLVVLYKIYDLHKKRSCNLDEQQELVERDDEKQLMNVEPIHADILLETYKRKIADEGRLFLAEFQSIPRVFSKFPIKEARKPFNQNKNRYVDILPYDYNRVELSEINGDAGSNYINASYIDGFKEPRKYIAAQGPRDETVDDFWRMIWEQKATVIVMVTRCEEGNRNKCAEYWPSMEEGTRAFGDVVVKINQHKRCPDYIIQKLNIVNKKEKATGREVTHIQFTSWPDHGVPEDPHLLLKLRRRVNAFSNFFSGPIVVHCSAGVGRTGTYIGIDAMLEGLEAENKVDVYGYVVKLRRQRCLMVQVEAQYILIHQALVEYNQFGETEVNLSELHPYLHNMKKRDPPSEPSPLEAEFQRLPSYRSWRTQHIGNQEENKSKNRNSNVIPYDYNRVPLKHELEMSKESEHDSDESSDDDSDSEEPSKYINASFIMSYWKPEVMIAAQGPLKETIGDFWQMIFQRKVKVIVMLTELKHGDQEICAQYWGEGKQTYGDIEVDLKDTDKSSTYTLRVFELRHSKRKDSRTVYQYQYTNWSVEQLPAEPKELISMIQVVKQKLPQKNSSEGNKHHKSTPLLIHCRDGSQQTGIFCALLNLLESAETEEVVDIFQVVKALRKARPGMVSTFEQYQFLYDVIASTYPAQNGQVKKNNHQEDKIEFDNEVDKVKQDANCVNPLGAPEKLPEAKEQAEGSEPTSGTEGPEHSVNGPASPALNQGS
Also on record: species or system Escherichia coli.

Test [2] deals with Mitogen-activated protein kinase 14 (Homo sapiens, UniProt Q16539). Also on record: species or system Escherichia coli. The conditions noted are these: for pIC50: read-out: IC50.
Chain of Mitogen-activated protein kinase 14 (Q16539 whole entry): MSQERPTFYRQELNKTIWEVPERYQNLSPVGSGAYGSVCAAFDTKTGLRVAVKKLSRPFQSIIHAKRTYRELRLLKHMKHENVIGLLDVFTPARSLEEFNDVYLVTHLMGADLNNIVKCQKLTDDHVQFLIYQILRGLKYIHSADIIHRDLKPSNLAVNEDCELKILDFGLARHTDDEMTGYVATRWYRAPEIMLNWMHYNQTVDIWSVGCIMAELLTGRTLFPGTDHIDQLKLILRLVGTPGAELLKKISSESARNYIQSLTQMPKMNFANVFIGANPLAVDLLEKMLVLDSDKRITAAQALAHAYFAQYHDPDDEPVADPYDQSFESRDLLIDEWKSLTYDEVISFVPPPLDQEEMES
Test [3] addresses T2, Nitric oxide synthase, inducible (Mus musculus, UniProt P29477).
T2 sequence (P29477 whole entry): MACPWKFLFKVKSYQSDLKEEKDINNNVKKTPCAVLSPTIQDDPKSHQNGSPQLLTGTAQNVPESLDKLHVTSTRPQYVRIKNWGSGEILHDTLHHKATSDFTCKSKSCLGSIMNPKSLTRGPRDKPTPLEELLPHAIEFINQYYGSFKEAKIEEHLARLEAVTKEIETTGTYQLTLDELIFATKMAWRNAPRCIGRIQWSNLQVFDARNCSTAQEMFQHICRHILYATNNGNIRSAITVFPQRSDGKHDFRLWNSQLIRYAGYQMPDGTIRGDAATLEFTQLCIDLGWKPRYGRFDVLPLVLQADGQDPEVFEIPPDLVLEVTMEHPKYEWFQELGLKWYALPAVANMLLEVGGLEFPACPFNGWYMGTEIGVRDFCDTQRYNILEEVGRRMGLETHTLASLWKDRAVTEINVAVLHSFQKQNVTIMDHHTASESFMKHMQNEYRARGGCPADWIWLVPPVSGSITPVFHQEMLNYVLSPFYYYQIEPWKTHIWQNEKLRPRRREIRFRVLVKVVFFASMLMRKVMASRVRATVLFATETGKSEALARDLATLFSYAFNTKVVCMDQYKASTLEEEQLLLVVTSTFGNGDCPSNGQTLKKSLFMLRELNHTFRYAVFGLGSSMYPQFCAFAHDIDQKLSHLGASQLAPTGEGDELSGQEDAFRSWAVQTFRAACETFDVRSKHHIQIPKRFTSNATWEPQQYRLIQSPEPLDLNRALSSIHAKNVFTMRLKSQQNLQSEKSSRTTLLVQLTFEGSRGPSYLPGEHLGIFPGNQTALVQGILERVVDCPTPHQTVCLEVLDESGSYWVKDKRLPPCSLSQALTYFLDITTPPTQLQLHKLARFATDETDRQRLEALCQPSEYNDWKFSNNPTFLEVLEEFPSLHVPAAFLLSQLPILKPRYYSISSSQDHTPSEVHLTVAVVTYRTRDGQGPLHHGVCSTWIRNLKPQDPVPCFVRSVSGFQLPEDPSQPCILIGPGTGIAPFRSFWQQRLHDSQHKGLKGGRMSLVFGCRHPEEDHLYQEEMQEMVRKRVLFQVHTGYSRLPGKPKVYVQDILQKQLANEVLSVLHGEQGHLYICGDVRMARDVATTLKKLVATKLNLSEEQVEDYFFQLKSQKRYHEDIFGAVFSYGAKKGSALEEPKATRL
Details: species or system Escherichia coli.

The target of test [4] is Histamine H2 receptor (Homo sapiens, UniProt P25021). The format is cell membranes, CHO-K1, Membrane. The following applies: cho-k1. Also: in other assays of this panel Not Active means under 50% inhibition at 10 µM.
Chain of Histamine H2 receptor (P25021 whole entry): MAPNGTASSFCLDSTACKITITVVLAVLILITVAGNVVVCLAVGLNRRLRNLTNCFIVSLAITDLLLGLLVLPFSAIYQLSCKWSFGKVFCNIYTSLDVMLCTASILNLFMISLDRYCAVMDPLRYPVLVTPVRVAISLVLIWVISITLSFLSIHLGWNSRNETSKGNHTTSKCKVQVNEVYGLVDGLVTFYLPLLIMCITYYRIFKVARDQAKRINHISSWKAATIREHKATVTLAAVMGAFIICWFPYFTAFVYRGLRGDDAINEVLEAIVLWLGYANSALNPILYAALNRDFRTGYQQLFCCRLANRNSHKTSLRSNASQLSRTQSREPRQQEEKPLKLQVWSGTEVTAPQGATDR
Test [5] can be described thus: DRUGMATRIX: ATPase, Na+/K+ enzyme inhibition (substrate: ATP). The format is tissue-based, Sus scrofa, Heart. The conditions noted are these: Not Active = under 50% inhibition at 10 µM.
Test [6] addresses T3, Neuropeptide Y receptor type 1 (Homo sapiens, UniProt P25929).
T3 sequence (P25929 whole entry): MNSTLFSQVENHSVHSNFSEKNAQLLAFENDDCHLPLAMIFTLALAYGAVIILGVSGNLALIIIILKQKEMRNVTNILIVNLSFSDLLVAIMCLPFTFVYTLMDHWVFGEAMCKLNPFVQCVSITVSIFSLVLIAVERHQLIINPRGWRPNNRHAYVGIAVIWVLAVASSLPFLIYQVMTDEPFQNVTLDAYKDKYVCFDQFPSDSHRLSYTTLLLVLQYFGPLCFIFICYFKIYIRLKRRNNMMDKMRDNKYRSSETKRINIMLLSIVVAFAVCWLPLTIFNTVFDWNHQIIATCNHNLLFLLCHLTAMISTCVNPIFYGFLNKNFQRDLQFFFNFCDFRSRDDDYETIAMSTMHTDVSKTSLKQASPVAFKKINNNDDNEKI
The format is cell membranes, Membrane. The following applies: sk-n-mc.

As to `CCC(C)(C)C(=O)O[C@H]1C[C@@H](C)C=C2C=C[C@H](C)[C@H](CC[C@@H]3C[C@@H](O)CC(=O)O3)[C@H]21` [SIMVASTATIN], the IC50 result in test [1], in test [2], in test [3], in test [4], in test [5] and in test [6] was “Not Active” throughout. In addition, the Ki result in test [5] was “Not Active”.

Regarding `Oc1ccc(/C=C/c2cc(O)cc(O)c2)cc1` [RESVERATROL], the IC50 result in test [1], in test [2], in test [3], in test [4], in test [5] and in test [6] was “Not Active” each time. Moreover, the Ki result in test [5] was “Not Active”.

For `Cc1cnc(NC(=O)C2=C(O)c3ccccc3S(=O)(=O)N2C)s1` [MELOXICAM], the IC50 entry in test [1], in test [2], in test [3], in test [4], in test [5] and in test [6] was “Not Active” in each case. Moreover, the Ki entry in test [5] is listed as “Not Active”.

With `CC[C@H](C)[C@@H](CO[C@@H](Cc1ccccc1)C(=O)N[C@@H](CCS(C)(=O)=O)C(=O)OC(C)C)NC[C@@H](N)CS`, the IC50 result in test [1], in test [2], in test [3], in test [4], in test [5] and in test [6] was “Not Active” each time. The Ki result in test [5] is “Not Active”.

Consider `O=C1CC[C@@]2(O)[C@H]3Cc4ccc(O)c5c4[C@@]2(CCN3CC2CC2)[C@H]1O5` [NALTREXONE], for which the IC50 result in test [1], in test [2], in test [3], in test [4], in test [5] and in test [6] was “Not Active” throughout. For the same compound, in test [5], the Ki result is “Not Active”.

In the case of `C=CCc1ccc2c(c1)OCO2` [SAFROLE], the IC50 entry in test [1], in test [2], in test [3], in test [4], in test [5] and in test [6] was “Not Active” in each case. Besides, the Ki entry in test [5] is “Not Active”.

Consider `O=[As][O-].[Na+]` [SODIUM ARSENITE], for which the IC50 result in test [1], in test [2], in test [3], in test [4], in test [5] and in test [6] was “Not Active” throughout. Further, the Ki result in test [5] was “Not Active”.

With `Cc1cn([C@H]2C=C[C@@H](CO)O2)c(=O)[nH]c1=O` [STAVUDINE], the IC50 entry in test [1], in test [2], in test [3], in test [4], in test [5] and in test [6] was “Not Active” in each case. In addition, the Ki result in test [5] is given as “Not Active”.

With `COC(=O)Nc1nc2ccc(C(=O)c3ccccc3)cc2[nH]1` [MEBENDAZOLE], the IC50 result in test [1], in test [2], in test [3], in test [4], in test [5] and in test [6] was “Not Active” in each case. The Ki entry in test [5] is reported as “Not Active”.

Regarding `CC[C@H](C)C(=O)O[C@H]1CCC=C2C=C[C@H](C)[C@H](CC[C@@H]3C[C@@H](O)CC(=O)O3)[C@H]21` [MEVASTATIN], the IC50 entry in test [1], in test [2], in test [3], in test [4], in test [5] and in test [6] was “Not Active” each time. Moreover, in test [5], the Ki result was “Not Active”.

Consider `O=C(OC[C@H]1O[C@@H](OC(=O)c2cc(O)c(O)c(OC(=O)c3cc(O)c(O)c(O)c3)c2)[C@H](OC(=O)c2cc(O)c(O)c(OC(=O)c3cc(O)c(O)c(O)c3)c2)[C@@H](OC(=O)c2cc(O)c(O)c(OC(=O)c3cc(O)c(O)c(O)c3)c2)[C@@H]1OC(=O)c1cc(O)c(O)c(OC(=O)c2cc(O)c(O)c(O)c2)c1)c1cc(O)c(O)c(OC(=O)c2cc(O)c(O)c(O)c2)c1` [TANNIC ACID], for which the IC50 result in test [1], in test [3], in test [4] and in test [6] was “Not Active” each time. The pIC50 (in general, the IC50 on a negative log10 scale, so that one unit is a factor of ten) in test [2] is 6.43; in test [5] (read-out: IC50), 5.87.

With LEAD(IV) ACETATE, the IC50 result in test [1], in test [2], in test [3], in test [4], in test [5] and in test [6] was “Not Active” each time. Further, the Ki result in test [1], in test [2], in test [3], in test [4], in test [5] and in test [6] was “Not Active” throughout.

As for `CC#C[C@]1(O)CC[C@H]2[C@@H]3CCC4=CC(=O)CCC4=C3[C@@H](c3ccc(N(C)C)cc3)C[C@@]21C` [MIFEPRISTONE], the IC50 result in test [1], in test [3], in test [4], in test [5] and in test [6] was “Not Active” each time. The pIC50 in test [2] was 4.08. The Ki entry in test [5] is listed as “Not Active”.

For the compound `Cc1[nH]c(=O)c(C#N)cc1-c1ccncc1` [MILRINONE], the IC50 result in test [1], in test [2], in test [3], in test [4], in test [5] and in test [6] was “Not Active” in each case. Also, the Ki entry in test [5] is recorded as “Not Active”.
